From ChEMBL document CHEMBL4732204, “Multitargeting application of proline-derived peptidomimetics addressing cancer-related human matrix metalloproteinase 9 and carbonic anhydrase II” (Eur J Med Chem, 2021)

What was measured:
[1] = target: Carbonic anhydrase 1 (Homo sapiens, UniProt P00915); assay: Inhibition of human CA1 incubated for 15 mins by stopped-flow CO2 hydration kinetic assay based Cheng-Prusoff equation analysis
[2] = target: Carbonic anhydrase 2 (Homo sapiens, UniProt P00918); assay: Inhibition of human CA2 incubated for 15 mins by stopped-flow CO2 hydration kinetic assay based Cheng-Prusoff equation analysis
[3] = target: Matrix metalloproteinase-9 (Homo sapiens, UniProt P14780); assay: Inhibition of MMP9 (unknown origin) using Mca-Lys-Pro-Leu-Gly-Leu-Dpa-Ala-Arg-NH2 as substrate incubated for 5 min followed by substrate addition and measured for 30 mins by fluorescence based assay
[4] = target: 72 kDa type IV collagenase (Homo sapiens, UniProt P08253)
[5] = target: Carbonic anhydrase 9 (Homo sapiens, UniProt Q16790); assay: Inhibition of human CA9 incubated for 15 mins by stopped-flow CO2 hydration kinetic assay based Cheng-Prusoff equation analysis
[6] = target: Carbonic anhydrase 12 (Homo sapiens, UniProt O43570); assay: Inhibition of human CA12 incubated for 15 mins by stopped-flow CO2 hydration kinetic assay based Cheng-Prusoff equation analysis
Chain of Carbonic anhydrase 12 (O43570 whole entry): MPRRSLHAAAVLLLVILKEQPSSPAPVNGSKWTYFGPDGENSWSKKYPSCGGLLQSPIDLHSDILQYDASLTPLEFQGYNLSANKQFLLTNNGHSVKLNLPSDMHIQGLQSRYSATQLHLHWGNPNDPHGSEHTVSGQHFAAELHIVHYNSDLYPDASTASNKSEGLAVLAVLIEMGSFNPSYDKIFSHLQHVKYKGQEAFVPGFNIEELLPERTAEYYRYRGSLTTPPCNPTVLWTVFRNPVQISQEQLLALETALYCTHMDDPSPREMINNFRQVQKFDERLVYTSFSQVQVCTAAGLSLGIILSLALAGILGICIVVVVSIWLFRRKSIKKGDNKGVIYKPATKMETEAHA

Chain of 72 kDa type IV collagenase (P08253 whole entry): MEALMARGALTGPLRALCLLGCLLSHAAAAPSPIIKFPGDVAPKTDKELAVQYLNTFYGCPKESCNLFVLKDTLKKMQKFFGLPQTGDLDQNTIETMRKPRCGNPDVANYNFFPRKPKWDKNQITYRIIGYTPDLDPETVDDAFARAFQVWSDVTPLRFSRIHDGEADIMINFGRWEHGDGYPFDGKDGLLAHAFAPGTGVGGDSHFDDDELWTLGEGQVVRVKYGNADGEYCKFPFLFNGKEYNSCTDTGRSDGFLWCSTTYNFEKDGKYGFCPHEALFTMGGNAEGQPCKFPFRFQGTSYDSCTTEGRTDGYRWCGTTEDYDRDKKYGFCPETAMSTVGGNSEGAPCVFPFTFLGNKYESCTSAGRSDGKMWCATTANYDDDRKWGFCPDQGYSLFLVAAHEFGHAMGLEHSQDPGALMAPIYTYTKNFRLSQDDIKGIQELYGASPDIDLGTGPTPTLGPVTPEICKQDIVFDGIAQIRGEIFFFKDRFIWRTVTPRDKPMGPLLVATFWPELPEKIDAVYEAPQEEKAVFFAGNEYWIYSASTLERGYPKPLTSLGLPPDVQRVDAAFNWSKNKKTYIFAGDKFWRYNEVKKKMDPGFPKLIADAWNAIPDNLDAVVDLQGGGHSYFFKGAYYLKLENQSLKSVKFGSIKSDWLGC
Chain of Carbonic anhydrase 1 (P00915 whole entry): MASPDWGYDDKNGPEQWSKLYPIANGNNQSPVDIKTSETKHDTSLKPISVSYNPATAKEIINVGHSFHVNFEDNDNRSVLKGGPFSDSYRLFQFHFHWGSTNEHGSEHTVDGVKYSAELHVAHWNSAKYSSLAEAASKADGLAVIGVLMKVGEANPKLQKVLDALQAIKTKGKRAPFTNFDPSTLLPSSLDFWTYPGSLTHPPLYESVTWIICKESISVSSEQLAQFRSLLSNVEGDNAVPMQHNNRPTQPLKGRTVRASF
Chain of Matrix metalloproteinase-9 (P14780 whole entry): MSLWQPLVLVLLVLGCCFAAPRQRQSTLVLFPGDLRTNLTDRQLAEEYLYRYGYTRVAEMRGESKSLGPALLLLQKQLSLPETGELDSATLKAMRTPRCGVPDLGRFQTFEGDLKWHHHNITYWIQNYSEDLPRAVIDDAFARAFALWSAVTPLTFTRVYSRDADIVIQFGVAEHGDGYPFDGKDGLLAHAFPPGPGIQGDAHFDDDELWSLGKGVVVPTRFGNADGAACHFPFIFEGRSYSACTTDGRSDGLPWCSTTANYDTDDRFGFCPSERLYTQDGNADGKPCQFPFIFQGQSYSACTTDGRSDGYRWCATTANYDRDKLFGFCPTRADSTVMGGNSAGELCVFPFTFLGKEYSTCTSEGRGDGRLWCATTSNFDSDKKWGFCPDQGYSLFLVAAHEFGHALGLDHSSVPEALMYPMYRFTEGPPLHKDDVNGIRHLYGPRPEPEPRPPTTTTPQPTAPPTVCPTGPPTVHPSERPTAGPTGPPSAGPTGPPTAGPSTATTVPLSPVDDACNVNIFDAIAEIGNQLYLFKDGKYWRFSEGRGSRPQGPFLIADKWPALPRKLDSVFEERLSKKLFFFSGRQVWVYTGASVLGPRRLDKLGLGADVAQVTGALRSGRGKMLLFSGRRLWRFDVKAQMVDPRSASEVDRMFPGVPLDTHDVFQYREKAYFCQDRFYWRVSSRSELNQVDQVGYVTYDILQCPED

SMILES | Ki [1] | Ki [2] | Ki [3] | Ki [4] | Ki [5] | Ki [6]
O=C(NO)[C@H]1C[C@H](n2cc(-c3ccccc3)nn2)CN1S(=O)(=O)c1ccc(Cl)c(Cl)c1 | > 100 µM | > 100 µM | 1.55 µM |  |  | 
O=C(NO)[C@H]1C[C@@H](NS(=O)(=O)c2ccc(-c3ccccc3)cc2)CN1S(=O)(=O)c1ccc(Cl)c(Cl)c1 | > 100 µM | 24.8 µM | 0.541 µM | > 10000 nM | > 100 µM | 67.2 µM
O=C(NO)[C@H]1C[C@H](NS(=O)(=O)c2ccc(-c3ccccc3)cc2)CN1S(=O)(=O)c1ccc(Cl)c(Cl)c1 | > 100 µM | 6.68 µM | 0.057 µM | 328 nM | > 100 µM | 98.5 µM
O=C(Nc1ccc(C(=O)Nc2ccc(S(=O)(=O)N3CCC[C@@H]3C(=O)NO)cc2)cc1)OCc1ccccc1 | > 100 µM | > 100 µM | 0.032 µM | 0.044 nM |  | 
COc1ccc(S(=O)(=O)N2CCC[C@@H]2C(=O)NO)cc1 | > 100 µM | > 100 µM | 0.02 µM |  |  | 
COc1ccc(S(=O)(=O)N2C[C@H](NC(=O)C(C)(C)C)C[C@@H]2C(=O)NO)cc1 | > 100 µM | > 100 µM | 0.123 µM | 26 nM |  | 
O=C(Nc1ccc(S(=O)(=O)N2CCC[C@@H]2C(=O)NO)cc1)OCc1ccccc1 | > 100 µM | > 100 µM | 0.473 µM | 2.16 nM |  | 
CS(=O)(=O)N1C[C@@H](NS(=O)(=O)c2ccc(-c3ccccc3)cc2)C[C@@H]1C(=O)NO | > 100 µM | > 100 µM | 3.88 µM | 2260 nM | > 100 µM | 47 µM
O=C(NO)[C@H]1C[C@H](NS(=O)(=O)c2ccc(-c3ccccc3)cc2)CN1S(=O)(=O)c1ccc(-c2ccccc2)cc1 | > 100 µM | > 100 µM | 0.294 µM | 54 nM | 21.4 µM | 8.82 µM
COc1ccc(S(=O)(=O)N2C[C@@H](NS(=O)(=O)c3ccc(-c4ccccc4)cc3)C[C@@H]2C(=O)NO)cc1 | > 100 µM | > 100 µM | 0.482 µM | 406 nM | > 100 µM | > 100 µM
O=C(Nc1ccc(S(=O)(=O)N2CCC[C@@H]2C(=O)NO)cc1)c1ccc([N+](=O)[O-])cc1 | > 100 µM | > 100 µM | 0.00011 µM | 0.087 nM |  | 
O=C(NO)[C@H]1C[C@H](NS(=O)(=O)c2ccc(-c3ccccc3)cc2)CN1S(=O)(=O)c1ccc(OC(F)(F)F)cc1 | > 100 µM | > 100 µM | > 100 µM | > 100000 nM | > 100 µM | > 100 µM
O=C(NO)[C@H]1CCCN1S(=O)(=O)c1ccc(C#Cc2ccccc2)cc1 | > 100 µM | > 100 µM | 0.00083 µM | 0.25 nM |  | 

Further lines, results first:

Ki [1] | Ki [2] | Ki [3] | Ki [4] | Ki [5] | Ki [6] | SMILES
> 100 µM | > 100 µM | > 10 µM |  |  |  | O=C(NO)[C@H]1C[C@@H](n2cc(-c3ccccc3)nn2)CN1S(=O)(=O)c1ccc(Cl)c(Cl)c1
> 100 µM | > 100 µM | > 10 µM | > 10000 nM |  |  | O=C(N[C@H]1C[C@H](C(=O)NO)N(S(=O)(=O)c2ccc(Cl)c(Cl)c2)C1)c1cccs1
> 100 µM | > 100 µM | 0.091 µM | 131 nM |  |  | O=C(N[C@@H]1C[C@H](C(=O)NO)N(S(=O)(=O)c2ccc(Cl)c(Cl)c2)C1)c1cccs1
> 100 µM | > 100 µM | 0.324 µM |  |  |  | O=C(/C=C/c1ccco1)N[C@H]1C[C@H](C(=O)NO)N(S(=O)(=O)c2ccc(Cl)c(Cl)c2)C1
> 100 µM | > 100 µM | > 10 µM |  |  |  | O=C(NO)[C@H]1[C@@H](OCc2ccccc2)CCN1S(=O)(=O)c1ccc(Cl)c(Cl)c1
> 100 µM | > 100 µM | > 10 µM | > 10000 nM |  |  | CCCCCCO[C@H]1CCN(S(=O)(=O)c2ccc(Cl)cc2)[C@H]1C(=O)NO
8.4 µM | 6.13 µM | > 100 µM | > 100000 nM | 20.7 µM | 9.19 µM | COc1ccc(S(=O)(=O)N2C[C@@H](NS(=O)(=O)c3ccc(-c4ccccc4)cc3)C[C@@H]2C(=O)O)cc1
52.9 µM | 44.8 µM | > 100 µM |  | 23.3 µM | > 100 µM | O=C(NO)[C@H]1C[C@H](NS(=O)(=O)c2ccc(-c3ccccc3)cc2)CN1S(=O)(=O)c1ccc([N+](=O)[O-])cc1
